# Read-outs that look alike come from different tables or passages of the source.
# Legend:
# CSNK1G1 = CSNK1G1 (Homo sapiens (Human), UniProt Q9HCP0); experiment: KinomeScan; format: binding; conditions: 1 uM
# LATS2 = LATS2 (Homo sapiens (Human), UniProt Q9NRM7); experiment: KinomeScan; format: binding; conditions: 1 uM
# [1] = biological target: TYK2 (JH1domain-catalytic) (Homo sapiens (Human), UniProt P29597); experiment: KinomeScan; format: binding; conditions: 1 uM
# SYK = SYK (Homo sapiens (Human), UniProt P43405); experiment: KinomeScan; format: binding; conditions: 1 uM
# DYRK3 = DYRK3 (Homo sapiens (Human), UniProt O43781); experiment: Dundee profiling
# IKKe = IKKe (Homo sapiens (Human), UniProt Q14164); experiment: Dundee profiling
# MST4 = MST4 (Homo sapiens (Human), UniProt Q9P289); experiment: Dundee profiling
# Sequence of MST4 (Q9P289 whole entry, species assumed): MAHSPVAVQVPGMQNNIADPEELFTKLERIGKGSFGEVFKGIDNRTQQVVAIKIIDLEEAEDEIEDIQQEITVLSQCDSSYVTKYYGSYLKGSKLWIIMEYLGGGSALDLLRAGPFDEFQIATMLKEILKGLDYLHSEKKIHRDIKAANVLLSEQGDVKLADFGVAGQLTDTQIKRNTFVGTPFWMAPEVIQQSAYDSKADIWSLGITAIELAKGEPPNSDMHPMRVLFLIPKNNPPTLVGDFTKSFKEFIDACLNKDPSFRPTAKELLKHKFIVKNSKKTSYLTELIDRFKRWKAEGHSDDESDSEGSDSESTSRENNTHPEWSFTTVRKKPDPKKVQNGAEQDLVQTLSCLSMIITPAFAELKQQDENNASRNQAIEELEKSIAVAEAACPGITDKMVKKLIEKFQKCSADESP
# EGFR (S752-I759del) = EGFR (S752-I759del) (Homo sapiens (Human), UniProt P00533, DEL752-759); experiment: KinomeScan; format: binding; conditions: 1 uM
# MARK4 = MARK4 (Homo sapiens (Human), UniProt Q96L34); experiment: KinomeScan; format: binding; conditions: 1 uM
# [2] = biological target: RSK4 (Kin.Dom.2-C-terminal) (Homo sapiens (Human), UniProt Q9UK32); experiment: KinomeScan; format: binding; conditions: 1 uM
# PKCa = PKCa (Homo sapiens (Human), UniProt P17252); experiment: Dundee profiling
# EGFR (E746-A750del) = EGFR (E746-A750del) (Homo sapiens (Human), UniProt P00533, DEL746-750); experiment: KinomeScan; format: binding; conditions: 1 uM
# LKB1 = LKB1 (Homo sapiens (Human), UniProt Q15831); experiment: Dundee profiling
# EPH-B4 = EPH-B4 (Homo sapiens (Human), UniProt P54760); experiment: Dundee profiling
# DYRK2 = DYRK2 (Homo sapiens (Human), UniProt Q92630); experiment: Dundee profiling
# WNK1 = WNK1 (Homo sapiens (Human), UniProt Q9H4A3); experiment: KinomeScan; format: binding; conditions: 1 uM
# TIE2 = TIE2 (Homo sapiens (Human), UniProt Q02763); experiment: Dundee profiling
# FGF-R1 = FGF-R1 (Homo sapiens (Human), UniProt P11362); experiment: Dundee profiling
# MKK6 = MKK6 (Homo sapiens (Human), UniProt P52564); experiment: Dundee profiling
# IRR = IRR (Homo sapiens (Human), UniProt P14616); experiment: Dundee profiling
# MKK2 = MKK2 (Homo sapiens (Human), UniProt P36507); experiment: Dundee profiling
# EPH-A4 = EPH-A4 (Homo sapiens (Human), UniProt P54764); experiment: Dundee profiling
# Sequence of EPH-A4 (P54764 20-986, species assumed): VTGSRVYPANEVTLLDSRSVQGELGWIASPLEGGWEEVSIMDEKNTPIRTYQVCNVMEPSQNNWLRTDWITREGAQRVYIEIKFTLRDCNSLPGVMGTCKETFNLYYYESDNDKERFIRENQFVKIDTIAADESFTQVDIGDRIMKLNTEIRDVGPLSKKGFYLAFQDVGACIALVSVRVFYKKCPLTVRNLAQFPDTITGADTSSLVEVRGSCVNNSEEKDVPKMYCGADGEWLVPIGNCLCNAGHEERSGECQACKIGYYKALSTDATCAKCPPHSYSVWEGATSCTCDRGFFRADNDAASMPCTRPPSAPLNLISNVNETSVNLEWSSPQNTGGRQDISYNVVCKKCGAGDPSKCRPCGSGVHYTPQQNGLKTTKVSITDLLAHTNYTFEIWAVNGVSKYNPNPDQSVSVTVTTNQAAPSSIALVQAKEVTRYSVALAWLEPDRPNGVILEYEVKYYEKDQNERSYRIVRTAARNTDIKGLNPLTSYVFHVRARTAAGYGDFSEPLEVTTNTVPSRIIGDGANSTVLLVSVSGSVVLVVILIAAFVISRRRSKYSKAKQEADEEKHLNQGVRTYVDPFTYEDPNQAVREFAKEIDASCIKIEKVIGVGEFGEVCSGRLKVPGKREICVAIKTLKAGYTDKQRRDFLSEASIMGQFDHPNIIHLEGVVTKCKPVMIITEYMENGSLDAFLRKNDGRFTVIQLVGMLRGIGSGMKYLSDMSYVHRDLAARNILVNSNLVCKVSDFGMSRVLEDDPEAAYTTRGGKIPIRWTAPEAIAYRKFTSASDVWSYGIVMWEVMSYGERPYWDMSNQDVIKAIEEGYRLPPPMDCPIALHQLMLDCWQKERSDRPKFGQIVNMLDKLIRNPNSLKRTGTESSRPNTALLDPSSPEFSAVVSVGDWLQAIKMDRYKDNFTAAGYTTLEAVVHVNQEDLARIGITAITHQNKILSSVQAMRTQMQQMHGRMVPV
# PRK2 = PRK2 (Homo sapiens (Human), UniProt Q16513); experiment: Dundee profiling
# Sequence of PRK2 (Q16513 whole entry, species assumed): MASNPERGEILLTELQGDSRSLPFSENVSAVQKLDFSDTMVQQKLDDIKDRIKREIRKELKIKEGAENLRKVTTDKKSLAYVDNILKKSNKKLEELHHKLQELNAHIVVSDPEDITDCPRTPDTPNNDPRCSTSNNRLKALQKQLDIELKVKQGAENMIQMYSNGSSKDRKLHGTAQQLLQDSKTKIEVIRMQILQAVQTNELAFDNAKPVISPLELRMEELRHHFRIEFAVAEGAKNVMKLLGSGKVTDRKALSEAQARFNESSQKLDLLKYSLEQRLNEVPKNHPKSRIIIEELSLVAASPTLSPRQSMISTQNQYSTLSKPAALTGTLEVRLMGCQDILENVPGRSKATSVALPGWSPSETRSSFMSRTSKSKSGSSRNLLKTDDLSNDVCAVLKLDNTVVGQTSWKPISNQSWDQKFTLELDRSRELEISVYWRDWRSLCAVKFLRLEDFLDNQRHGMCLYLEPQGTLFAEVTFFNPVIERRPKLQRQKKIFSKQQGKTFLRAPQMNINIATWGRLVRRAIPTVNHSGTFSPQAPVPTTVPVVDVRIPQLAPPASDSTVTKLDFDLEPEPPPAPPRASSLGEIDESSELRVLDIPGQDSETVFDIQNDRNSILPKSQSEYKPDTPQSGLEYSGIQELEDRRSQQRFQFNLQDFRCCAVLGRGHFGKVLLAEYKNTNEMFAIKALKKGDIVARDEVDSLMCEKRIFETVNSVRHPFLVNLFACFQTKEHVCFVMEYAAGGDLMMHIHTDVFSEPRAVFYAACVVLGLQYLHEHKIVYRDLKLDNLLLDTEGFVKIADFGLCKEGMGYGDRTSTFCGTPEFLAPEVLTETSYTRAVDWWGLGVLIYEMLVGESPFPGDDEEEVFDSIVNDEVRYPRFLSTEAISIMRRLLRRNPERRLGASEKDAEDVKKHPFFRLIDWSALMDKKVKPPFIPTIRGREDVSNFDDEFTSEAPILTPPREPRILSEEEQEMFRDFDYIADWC
# TGFBR1 = TGFBR1 (Homo sapiens (Human), UniProt P36897); experiment: Dundee profiling
# RSK1 = RSK1 (Homo sapiens (Human), UniProt Q15418); experiment: Dundee profiling
# BTK = BTK (Homo sapiens (Human), UniProt Q06187); experiment: KinomeScan; format: binding; conditions: 1 uM
# MAP4K3 = MAP4K3 (Homo sapiens (Human), UniProt Q8IVH8); experiment: KinomeScan; format: binding; conditions: 1 uM
# IRAK4 = IRAK4 (Homo sapiens (Human), UniProt Q9NWZ3); experiment: KinomeScan; format: binding; conditions: 1 uM
# [3] = biological target: EGFR (L747-S752del, P753S) (Homo sapiens (Human), UniProt P00533, DEL747-752/P753S); experiment: KinomeScan; format: binding; conditions: 1 uM
# ROCK2 = ROCK2 (Homo sapiens (Human), UniProt O75116); experiment: Dundee profiling
# Sequence of ROCK2 (O75116 whole entry, looked up, species assumed): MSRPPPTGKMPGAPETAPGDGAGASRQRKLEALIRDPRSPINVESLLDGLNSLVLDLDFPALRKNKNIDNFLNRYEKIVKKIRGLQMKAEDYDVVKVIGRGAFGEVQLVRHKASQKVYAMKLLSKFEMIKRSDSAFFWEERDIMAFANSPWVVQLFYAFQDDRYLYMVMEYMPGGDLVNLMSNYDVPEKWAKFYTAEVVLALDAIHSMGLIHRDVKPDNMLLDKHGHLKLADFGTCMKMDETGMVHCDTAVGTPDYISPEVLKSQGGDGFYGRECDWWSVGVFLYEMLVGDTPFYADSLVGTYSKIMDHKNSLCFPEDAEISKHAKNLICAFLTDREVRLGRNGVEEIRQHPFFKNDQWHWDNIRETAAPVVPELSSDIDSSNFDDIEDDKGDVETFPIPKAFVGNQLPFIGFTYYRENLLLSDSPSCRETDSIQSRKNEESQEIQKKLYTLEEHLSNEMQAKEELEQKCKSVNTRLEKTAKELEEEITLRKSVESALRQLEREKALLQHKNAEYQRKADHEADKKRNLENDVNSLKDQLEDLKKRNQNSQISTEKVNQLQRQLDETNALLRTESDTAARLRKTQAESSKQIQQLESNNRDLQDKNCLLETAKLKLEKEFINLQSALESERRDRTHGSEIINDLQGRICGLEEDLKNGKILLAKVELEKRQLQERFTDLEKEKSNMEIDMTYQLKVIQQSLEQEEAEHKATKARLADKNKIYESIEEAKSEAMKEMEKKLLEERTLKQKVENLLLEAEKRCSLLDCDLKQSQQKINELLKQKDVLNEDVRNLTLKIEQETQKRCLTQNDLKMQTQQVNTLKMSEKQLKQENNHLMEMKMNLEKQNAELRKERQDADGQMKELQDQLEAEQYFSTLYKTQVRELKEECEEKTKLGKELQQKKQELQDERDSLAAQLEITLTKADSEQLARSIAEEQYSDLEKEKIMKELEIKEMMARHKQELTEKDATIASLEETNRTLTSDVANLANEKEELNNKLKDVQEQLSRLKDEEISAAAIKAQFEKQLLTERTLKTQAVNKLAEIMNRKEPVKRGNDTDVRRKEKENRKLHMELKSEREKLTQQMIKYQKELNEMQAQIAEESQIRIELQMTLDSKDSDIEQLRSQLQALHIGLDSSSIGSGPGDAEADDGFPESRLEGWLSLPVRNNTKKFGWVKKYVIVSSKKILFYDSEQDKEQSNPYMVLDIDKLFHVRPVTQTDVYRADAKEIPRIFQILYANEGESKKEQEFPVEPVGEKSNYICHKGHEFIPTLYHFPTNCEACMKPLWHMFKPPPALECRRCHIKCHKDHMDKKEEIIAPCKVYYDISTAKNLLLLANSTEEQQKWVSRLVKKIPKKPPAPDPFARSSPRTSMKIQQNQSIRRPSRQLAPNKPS
# CDK3 = CDK3 (Homo sapiens (Human), UniProt Q00526); experiment: KinomeScan; format: binding; conditions: 1 uM
# EGFR (T790M) = EGFR (T790M) (Homo sapiens (Human), UniProt P00533, T790M); experiment: KinomeScan; format: binding; conditions: 1 uM
# ITK = ITK (Homo sapiens (Human), UniProt Q08881); experiment: KinomeScan; format: binding; conditions: 1 uM
# IR = IR (Homo sapiens (Human), UniProt P06213); experiment: Dundee profiling
# Sequence of IR (P06213 28-1382): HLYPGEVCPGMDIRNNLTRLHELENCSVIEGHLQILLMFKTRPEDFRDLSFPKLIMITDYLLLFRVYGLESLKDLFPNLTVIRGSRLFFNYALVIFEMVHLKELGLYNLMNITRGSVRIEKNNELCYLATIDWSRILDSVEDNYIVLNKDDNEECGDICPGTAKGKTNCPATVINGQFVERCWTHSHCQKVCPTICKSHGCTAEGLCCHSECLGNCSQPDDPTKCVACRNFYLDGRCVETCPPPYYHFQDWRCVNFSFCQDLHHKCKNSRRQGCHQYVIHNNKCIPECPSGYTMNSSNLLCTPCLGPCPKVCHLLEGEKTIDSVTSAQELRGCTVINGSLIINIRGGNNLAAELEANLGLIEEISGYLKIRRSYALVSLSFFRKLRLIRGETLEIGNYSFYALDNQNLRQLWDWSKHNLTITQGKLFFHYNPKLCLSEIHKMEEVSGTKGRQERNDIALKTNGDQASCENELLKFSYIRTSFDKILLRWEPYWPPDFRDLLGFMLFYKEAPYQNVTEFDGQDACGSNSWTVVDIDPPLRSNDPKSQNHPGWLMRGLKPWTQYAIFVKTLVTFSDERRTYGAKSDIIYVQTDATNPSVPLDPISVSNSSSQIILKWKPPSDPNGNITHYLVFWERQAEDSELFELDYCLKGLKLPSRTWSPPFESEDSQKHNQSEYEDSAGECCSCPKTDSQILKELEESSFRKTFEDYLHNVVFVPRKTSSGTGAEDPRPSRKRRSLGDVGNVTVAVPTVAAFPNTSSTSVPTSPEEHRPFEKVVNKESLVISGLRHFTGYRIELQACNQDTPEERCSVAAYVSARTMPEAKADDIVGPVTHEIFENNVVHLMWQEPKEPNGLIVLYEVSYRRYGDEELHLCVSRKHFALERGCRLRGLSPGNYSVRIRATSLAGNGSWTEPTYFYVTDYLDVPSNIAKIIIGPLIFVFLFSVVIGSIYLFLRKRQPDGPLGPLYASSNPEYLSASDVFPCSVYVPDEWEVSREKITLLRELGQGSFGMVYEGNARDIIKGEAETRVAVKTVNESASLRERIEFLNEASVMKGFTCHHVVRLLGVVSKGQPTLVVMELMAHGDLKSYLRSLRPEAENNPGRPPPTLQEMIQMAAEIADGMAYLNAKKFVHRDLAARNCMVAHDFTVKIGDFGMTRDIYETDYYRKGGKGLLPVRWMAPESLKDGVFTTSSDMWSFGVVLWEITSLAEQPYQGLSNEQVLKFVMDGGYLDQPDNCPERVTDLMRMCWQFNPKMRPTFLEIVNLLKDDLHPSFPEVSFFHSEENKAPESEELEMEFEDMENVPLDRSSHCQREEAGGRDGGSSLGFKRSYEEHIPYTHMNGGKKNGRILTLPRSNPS
# ACVR2B = ACVR2B (Homo sapiens (Human), UniProt Q13705); experiment: KinomeScan; format: binding; conditions: 1 uM
# [4] = read-out: percent remaining enzymatic activity, I1, 1 μM
# [5] = read-out: percent remaining enzymatic activity, I10
smiles,measurement,setting,value
"CNc1nc(Nc2ccc(C(=O)N3CCOCC3)cc2OC)nc2[nH]cc(Cl)c12 [Compound 18, (4-((5-chloro-4-(methylamino)-7H-pyrrolo[2,3-d]pyrimidin-2-yl)amino)-3-methoxyphenyl)(morpholino)methanone]",KinomeScan value,CSNK1G1,97
same,KinomeScan value,LATS2,93
same,KinomeScan value,[1],99
same,KinomeScan value,SYK,80
same,remaining activity at 1 µM,DYRK3; [4],74%
same,remaining activity at 1 µM,DYRK3; [5],30%
same,remaining activity at 1 µM,IKKe; [4],114%
same,remaining activity at 1 µM,IKKe; [5],98%
same,remaining activity at 1 µM,MST4; [4],103%
same,remaining activity at 1 µM,MST4; [5],97%
same,KinomeScan value,EGFR (S752-I759del),97
same,KinomeScan value,MARK4,82
same,KinomeScan value,[2],90
same,remaining activity at 1 µM,PKCa; [4],102%
same,remaining activity at 1 µM,PKCa; [5],100%
same,KinomeScan value,EGFR (E746-A750del),100
same,remaining activity at 1 µM,LKB1; [4],103%
same,remaining activity at 1 µM,LKB1; [5],96%
same,remaining activity at 1 µM,EPH-B4; [4],80%
same,remaining activity at 1 µM,EPH-B4; [5],86%
same,remaining activity at 1 µM,DYRK2; [4],67%
same,remaining activity at 1 µM,DYRK2; [5],18%
same,KinomeScan value,WNK1,95
same,remaining activity at 1 µM,TIE2; [4],104%
same,remaining activity at 1 µM,TIE2; [5],94%
same,remaining activity at 1 µM,FGF-R1; [4],94%
same,remaining activity at 1 µM,FGF-R1; [5],102%
same,remaining activity at 1 µM,MKK6; [4],37%
same,remaining activity at 1 µM,MKK6; [5],11%
same,remaining activity at 1 µM,IRR; [4],31%
same,remaining activity at 1 µM,IRR; [5],10%
same,remaining activity at 1 µM,MKK2; [4],101%
same,remaining activity at 1 µM,MKK2; [5],72%
same,remaining activity at 1 µM,EPH-A4; [4],107%
same,remaining activity at 1 µM,EPH-A4; [5],102%
same,remaining activity at 1 µM,PRK2; [4],103%
same,remaining activity at 1 µM,PRK2; [5],93%
same,remaining activity at 1 µM,TGFBR1; [4],128%
same,remaining activity at 1 µM,TGFBR1; [5],119%
same,remaining activity at 1 µM,RSK1; [4],96%
same,remaining activity at 1 µM,RSK1; [5],60%
same,KinomeScan value,BTK,100
same,KinomeScan value,MAP4K3,100
same,KinomeScan value,IRAK4,100
same,KinomeScan value,[3],94
same,remaining activity at 1 µM,ROCK2; [4],113%
same,remaining activity at 1 µM,ROCK2; [5],101%
same,KinomeScan value,CDK3,96
same,KinomeScan value,EGFR (T790M),97
same,KinomeScan value,ITK,88
same,remaining activity at 1 µM,IR; [4],21%
same,remaining activity at 1 µM,IR; [5],10%
same,KinomeScan value,ACVR2B,100
